Test system: mice
Assay: acute toxic test using mice
Assay type: in vivo
Settings: administered orally at 5 g/kg
Source text: The safety of the theanine used in the present invention is high. […] In addition, especially L-theanine is known as the main component of deliciousness (umami) of tea, and is also used as a food additive for the use of deliciousness, and there is no limitation in its amount according to the Japanese Food Sanitation Act. Moreover, contrary to the conventional medicament for ameliorating sleep disorders, since dependence on the theanine is not found at all, the sleep can be promoted safely and effectively by the use of the composition, food or medicament of the present invention, whereby moderating or ameliorating the sleep disorders.

Question: Which “abnormality in the general state and body weight” value does the source give for `CCNC(=O)CC[C@H](N)C(=O)O` [theanine, γ-glutamylethylamide] here?
Answer: Its value is “no abnormality”.

Question: What about the death cases of the same compound?
Answer: The death cases was “no death cases”.

Reference: patent US8293269B2, “Compositions for promoting sleep” (Taiyo Kagaku Co., Ltd., priority 2000, dated 2012)
